For one experiment, the target named is T1, AmpC (Enterobacter cloacae, UniProt P05364).
T1 construct: made in house; host or cells: E. coli BL21(DE3)
Description: β-lactamase enzyme inhibition assay, p99 AmpC (nitrocefin substrate). It counts as biochemical. In outline:
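Native untagged enzymes expressed in E. coli BL21(DE3), purified by cation exchange and gel filtration. Inhibitor preincubated with enzyme 15 min at 37 °C; hydrolysis followed by absorbance. IC50 as concentration halving initial hydrolysis rate versus inhibitor-free wells.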

Experiment [1] concerns K. pneumoniae expressing the class A carbapenemase KPC-2 and the class B carbapenemase VIM-4. Description: Broth microdilution MIC assay with meropenem, K. pneumoniae KPC-2 and VIM-4. The conditions noted are these: Fixed Mero (meropenem) 4 μg/mL; K. p. A-1797 KPC-2 VIM-4. It counts as cell-based. The gist of the method:
(§1)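 Test compound was titrated 2-fold from 16 to 0.125 μg/mL in cation-adjusted Mueller Hinton broth against a fixed 4 μg/ml β-lactam overlay. Plates were inoculated per CLSI broth microdilution, incubated 16-20 hours at 37° C, and the MIC of the test compound was read visually.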
A general note: Dilution methods test growth across graded concentrations, often in twofold steps.

Experiment [2] relates to K. pneumoniae expressing the Class A carbapenemase KPC-2. Description: Broth microdilution MIC assay with meropenem, K. pneumoniae KPC-2. It counts as cell-based. The conditions noted are these: Fixed Mero (meropenem) 4 μg/mL; K. p. 156319 KPC-3. The gist of the method:
as §1

For the next experiment, the target named is T2, SHV-5 (Klebsiella pneumoniae, UniProt P0A3M1).
T2 construct: made in house; host or cells: E. coli BL21(DE3)
Description: β-lactamase enzyme inhibition assay, SHV-5 (cefotaxime substrate). It counts as biochemical. In outline: (§2)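 Native untagged enzymes expressed in E. coli BL21(DE3), purified by cation exchange and gel filtration. Inhibitor preincubated with enzyme 15 min at 37 °C; hydrolysis followed by absorbance: imipenem at 300 nm for KPC-2, cefotaxime at 260 nm for SHV-5. IC50 as concentration halving initial hydrolysis rate versus inhibitor-free wells.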

The test system of experiment [3] is P. aeruginosa expressing the Class B carbapenemase VIM-2. Description: Broth microdilution MIC assay with meropenem, P. aeruginosa VIM-2. It counts as cell-based. The conditions noted are these: Fixed Mero (meropenem) 4 μg/mL; P. aerug. 2775 VIM-2. The gist of the method:
as §1

Experiment [4] deals with K. pneumoniae producing the Class D carbapenemase OXA-48. Description: Broth microdilution MIC assay with meropenem, K. pneumoniae OXA-48. It counts as cell-based. Particulars: Fixed Mero (meropenem) 4 μg/mL; K. p. 11978 OXA-48. The gist of the method:
as §1

Experiment [5] relates to E. coli expressing the Class A Extended Spectrum Beta-Lactamase (ESBL) CTX-M-15. Description: Broth microdilution MIC assay with ceftazidime, E. coli CTX-M-15. It counts as cell-based. The conditions noted are these: Fixed CAZ (ceftazidime) 4 μg/mL; E. coli ESBL4 CTX-M-15. The gist of the method: as §1
The next experiment addresses T3, VIM-2 (Escherichia coli, UniProt Q5U7L7).
T3 construct: made in house; host or cells: E. coli BL21(DE3)
Description: β-lactamase enzyme inhibition assay, VIM-2 (nitrocefin substrate). It counts as biochemical. In outline:
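Purified VIM-2 (Q sepharose anion exchange, Hepes pH 7.5, >90% pure) was preincubated with inhibitor at 37 °C for 15 min, then nitrocefin added at 100 μM final. Absorbance at 486 nm was followed for 10 min; IC50 was taken from maximum hydrolysis rates relative to inhibitor-free controls.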

The target of another experiment is OXA-48 (UniProt Q6XEC0). Description: β-lactamase enzyme inhibition assay, Class D oxacillinase. It is filed as biochemical. Particulars: read-out: OXA-48.
Experiment [6] deals with E. cloacae expressing the Class C P99. Description: Broth microdilution MIC assay with ceftazidime, E. cloacae P99. The conditions noted are these: Fixed CAZ (ceftazidime) 4 μg/mL; E. cl. 144200 p99 AmpC. It counts as cell-based. In outline:
as §1

In a further experiment the target is T4, KPC-2 (Klebsiella pneumoniae, UniProt Q9F663).
T4 construct: made in house; host or cells: E. coli BL21(DE3)
Description: β-lactamase enzyme inhibition assay, KPC-2 (imipenem substrate). It is filed as biochemical. The gist of the method:
as §2

The mark [7] stands for this setting: Class B, nitrocefin substrate, 486 nm, read-out: VIM-2.
The mark [8] stands for this setting: Class A, imipenem substrate, 300 nm, read-out: KPC-2.

Where two headings read alike, the source gives them in different places.

T2 sequence (P0A3M1 22-286): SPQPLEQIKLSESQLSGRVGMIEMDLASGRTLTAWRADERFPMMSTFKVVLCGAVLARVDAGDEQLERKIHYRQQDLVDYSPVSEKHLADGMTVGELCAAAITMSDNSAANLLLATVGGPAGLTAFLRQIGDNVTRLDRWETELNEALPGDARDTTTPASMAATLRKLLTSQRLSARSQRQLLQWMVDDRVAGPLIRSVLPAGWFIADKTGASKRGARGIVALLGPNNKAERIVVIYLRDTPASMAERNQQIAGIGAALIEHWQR
T4 sequence (Q9F663 25-293, looked up): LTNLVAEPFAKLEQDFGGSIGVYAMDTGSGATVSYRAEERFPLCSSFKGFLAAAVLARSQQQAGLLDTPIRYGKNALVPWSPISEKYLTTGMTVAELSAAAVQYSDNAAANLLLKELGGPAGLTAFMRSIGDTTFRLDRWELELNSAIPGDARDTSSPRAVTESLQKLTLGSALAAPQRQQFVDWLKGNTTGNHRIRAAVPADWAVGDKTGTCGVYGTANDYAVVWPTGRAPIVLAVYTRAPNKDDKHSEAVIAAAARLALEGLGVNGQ
T1 sequence (P05364 21-381): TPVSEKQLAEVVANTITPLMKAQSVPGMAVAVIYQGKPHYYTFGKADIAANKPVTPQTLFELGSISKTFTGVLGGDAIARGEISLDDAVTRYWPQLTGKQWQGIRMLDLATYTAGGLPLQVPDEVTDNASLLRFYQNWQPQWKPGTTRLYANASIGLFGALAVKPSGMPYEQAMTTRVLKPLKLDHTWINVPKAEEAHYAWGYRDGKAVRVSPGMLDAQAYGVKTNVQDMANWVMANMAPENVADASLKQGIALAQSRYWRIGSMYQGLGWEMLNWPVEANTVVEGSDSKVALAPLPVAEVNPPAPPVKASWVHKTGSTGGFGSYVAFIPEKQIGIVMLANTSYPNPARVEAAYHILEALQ

Turning to `O=C(Cn1cc(CNCCO)nn1)N[C@H]1Cc2cccc(C(=O)O)c2OB1O` [Example 21, (R)-2-hydroxy-3-(2-(4-(((2-hydroxyethyl)amino)methyl)-1H-1,2,3-triazol-1-yl)acetamido)-3,4-dihydro-2H-benzo[e][1,2]oxaborinine-8-carboxylic acid], the IC50 against AmpC is less than 0.1 µM; against SHV-5, less than 0.1 µM; on VIM-2 (setting [7]), less than 0.1 µM; at OXA-48, 0.1 to 1 µM; on KPC-2 (setting [8]), less than 0.1 µM. Moreover, in [1], the “MIC (μg/mL) of Exemplary Compounds in presence of fixed β-lactams: K. p. A-1797 KPC-2 VIM-4” value (shortened to “MIC (μg/mL) … K. p. A-1797 KPC-2 VIM-4”) was “B (B represents an MIC between 1 and 16 μg/mL inclusive)”. The “MIC (μg/mL) of Exemplary Compounds in presence of fixed β-lactams: K. p. 156319 KPC-3” value (“MIC (μg/mL) … K. p. 156319 KPC-3” below) in experiment [2] was “B (B represents an MIC between 1 and 16 μg/mL inclusive)”. Also, in [3], the “MIC (μg/mL) of Exemplary Compounds in presence of fixed β-lactams: P. aerug. 2775 VIM-2” value (“MIC (μg/mL) … P. aerug. 2775 VIM-2” below) is “B (B represents an MIC between 1 and 16 μg/mL inclusive)”. In addition, in experiment [4], the “MIC (μg/mL) of Exemplary Compounds in presence of fixed β-lactams: K. p. 11978 OXA-48” value (from here on “MIC (μg/mL) … K. p. 11978 OXA-48”) is “B (B represents an MIC between 1 and 16 μg/mL inclusive)”. Besides, in [5], the “MIC (μg/mL) of Exemplary Compounds in presence of fixed β-lactams: E. coli ESBL4 CTX-M-15” value (“MIC (μg/mL) … E. coli ESBL4 CTX-M-15” for short) is listed as “C (C represents an MIC of <1 μg/mL)”. The “MIC (μg/mL) of Exemplary Compounds in presence of fixed β-lactams: E. cl. 144200 p99 AmpC” value (“MIC (μg/mL) … E. cl. 144200 p99 AmpC” for short) in experiment [6] is “C (C represents an MIC of <1 μg/mL)”.

Take `CNCc1cn(CC(=O)N[C@H]2Cc3cccc(C(=O)O)c3OB2O)nn1` [Example 26, (R)-2-hydroxy-3-(2-(4-((methylamino)methyl)-1H-1,2,3-triazol-1-yl)acetamido)-3,4-dihydro-2H-benzo[e][1,2]oxaborinine-8-carboxylic acid]: the IC50 was less than 0.1 µM against AmpC; less than 0.1 µM at SHV-5; less than 0.1 µM on VIM-2 (setting [7]); 0.1 to 1 µM at OXA-48; 0.1 to 1 µM on KPC-2 (setting [8]). Besides, the “MIC (μg/mL) … K. p. A-1797 KPC-2 VIM-4” value in [1] was “C (C represents an MIC of <1 μg/mL)”. In experiment [2], the “MIC (μg/mL) … K. p. 156319 KPC-3” value is “B (B represents an MIC between 1 and 16 μg/mL inclusive)”. The “MIC (μg/mL) … P. aerug. 2775 VIM-2” value in [3] was “B (B represents an MIC between 1 and 16 μg/mL inclusive)”. In addition, the “MIC (μg/mL) … K. p. 11978 OXA-48” value in experiment [4] was “B (B represents an MIC between 1 and 16 μg/mL inclusive)”. The “MIC (μg/mL) … E. coli ESBL4 CTX-M-15” value in [5] is listed as “C (C represents an MIC of <1 μg/mL)”. The “MIC (μg/mL) … E. cl. 144200 p99 AmpC” value in experiment [6] is “C (C represents an MIC of <1 μg/mL)”.

Take `NCCn1cc(Cn2nnnc2CC(=O)N[C@H]2Cc3cccc(C(=O)O)c3OB2O)nn1` [Example 123, (R)-3-(2-(1-((1-(2-aminoethyl)-1H-1,2,3-triazol-4-yl)methyl)-1H-tetrazol-5-yl)acetamido)-2-hydroxy-3,4-dihydro-2H-benzo[e][1,2]oxaborinine-8-carboxylic acid]: the IC50 was less than 0.1 µM on AmpC; less than 0.1 µM against SHV-5; 1 to 10 µM against VIM-2; 0.1 to 1 µM at OXA-48; 0.1 to 1 µM at KPC-2. Moreover, in [1], the “MIC (μg/mL) … K. p. A-1797 KPC-2 VIM-4” value is “B (B represents an MIC between 1 and 16 μg/mL inclusive)”. Moreover, the “MIC (μg/mL) … K. p. 156319 KPC-3” value in experiment [2] was “C (C represents an MIC of <1 μg/mL)”. For the same molecule, the “MIC (μg/mL) … P. aerug. 2775 VIM-2” value in [3] is given as “A (A represents an MIC>16 μg/mL)”. Moreover, the “MIC (μg/mL) … K. p. 11978 OXA-48” value in experiment [4] is “B (B represents an MIC between 1 and 16 μg/mL inclusive)”. Also, the “MIC (μg/mL) … E. coli ESBL4 CTX-M-15” value in [5] is recorded as “C (C represents an MIC of <1 μg/mL)”. Moreover, the “MIC (μg/mL) … E. cl. 144200 p99 AmpC” value in [6] is “C (C represents an MIC of <1 μg/mL)”.

For `Nc1ccc(S(=O)(=O)NCc2cn(CC(=O)N[C@H]3Cc4cccc(C(=O)O)c4OB3O)nn2)cc1` [Example 70, (R)-3-(2-(4-(((4-aminophenyl)sulfonamido)methyl)-1H-1,2,3-triazol-1-yl)acetamido)-2-hydroxy-3,4-dihydro-2H-benzo[e][1,2]oxaborinine-8-carboxylic acid], the IC50 is less than 0.1 µM at AmpC; less than 0.1 µM against SHV-5; 1 to 10 µM at VIM-2 (setting [7]); 0.1 to 1 µM on OXA-48; less than 0.1 µM at KPC-2 (setting [8]). The “MIC (μg/mL) … K. p. A-1797 KPC-2 VIM-4” value in [1] was “B (B represents an MIC between 1 and 16 μg/mL inclusive)”. In addition, the “MIC (μg/mL) … K. p. 156319 KPC-3” value in experiment [2] is “B (B represents an MIC between 1 and 16 μg/mL inclusive)”. Moreover, in experiment [3], the “MIC (μg/mL) … P. aerug. 2775 VIM-2” value was “B (B represents an MIC between 1 and 16 μg/mL inclusive)”. The “MIC (μg/mL) … K. p. 11978 OXA-48” value in experiment [4] was “B (B represents an MIC between 1 and 16 μg/mL inclusive)”. Also, the “MIC (μg/mL) … E. coli ESBL4 CTX-M-15” value in experiment [5] is “C (C represents an MIC of <1 μg/mL)”. Further, the “MIC (μg/mL) … E. cl. 144200 p99 AmpC” value in experiment [6] is “C (C represents an MIC of <1 μg/mL)”.

On to `CSCC[C@@H](C(=O)N[C@H]1Cc2cccc(C(=O)O)c2OB1O)n1cc(CN)nn1` [Example 115, (R)-3-((S)-2-(4-(aminomethyl)-1H-1,2,3-triazol-1-yl)-4-(methylthio)butanamido)-2-hydroxy-3,4-dihydro-2H-benzo[e][1,2]oxaborinine-8-carboxylic acid], for which the IC50 is less than 0.1 µM on AmpC; 0.1 to 1 µM against SHV-5; 0.1 to 1 µM on VIM-2 (setting [7]); 1 to 10 µM at OXA-48; 0.1 to 1 µM on KPC-2 (setting [8]). Further, in experiment [1], the “MIC (μg/mL) … K. p. A-1797 KPC-2 VIM-4” value is “B (B represents an MIC between 1 and 16 μg/mL inclusive)”. In experiment [2], the “MIC (μg/mL) … K. p. 156319 KPC-3” value is “B (B represents an MIC between 1 and 16 μg/mL inclusive)”. Also, in experiment [3], the “MIC (μg/mL) … P. aerug. 2775 VIM-2” value was “B (B represents an MIC between 1 and 16 μg/mL inclusive)”. The “MIC (μg/mL) … K. p. 11978 OXA-48” value in experiment [4] was “B (B represents an MIC between 1 and 16 μg/mL inclusive)”. Besides, in experiment [5], the “MIC (μg/mL) … E. coli ESBL4 CTX-M-15” value is “C (C represents an MIC of <1 μg/mL)”. The “MIC (μg/mL) … E. cl. 144200 p99 AmpC” value in [6] is given as “C (C represents an MIC of <1 μg/mL)”.

On to `O=C(Cn1cc(-c2ccsc2)nn1)N[C@H]1Cc2cccc(C(=O)O)c2OB1O` [Example 29, (R)-2-hydroxy-3-(2-(4-(thiophen-3-yl)-1H-1,2,3-triazol-1-yl)acetamido)-3,4-dihydro-2H-benzo[e][1,2]oxaborinine-8-carboxylic acid], for which the IC50 against AmpC was less than 0.1 µM; at SHV-5, less than 0.1 µM; at VIM-2 (setting [7]), 0.1 to 1 µM; at OXA-48, 0.1 to 1 µM; on KPC-2 (setting [8]) it was less than 0.1 µM. The “MIC (μg/mL) … K. p. A-1797 KPC-2 VIM-4” value in [1] is “B (B represents an MIC between 1 and 16 μg/mL inclusive)”. Besides, the “MIC (μg/mL) … K. p. 156319 KPC-3” value in experiment [2] is “B (B represents an MIC between 1 and 16 μg/mL inclusive)”. The “MIC (μg/mL) … P. aerug. 2775 VIM-2” value in experiment [3] was “B (B represents an MIC between 1 and 16 μg/mL inclusive)”. For the same molecule, in experiment [4], the “MIC (μg/mL) … K. p. 11978 OXA-48” value was “B (B represents an MIC between 1 and 16 μg/mL inclusive)”. The “MIC (μg/mL) … E. coli ESBL4 CTX-M-15” value in experiment [5] is reported as “C (C represents an MIC of <1 μg/mL)”. Further, in [6], the “MIC (μg/mL) … E. cl. 144200 p99 AmpC” value was “C (C represents an MIC of <1 μg/mL)”.

These data come from patent publication US11046716B2, “Beta-lactamase inhibitors” (priority 2015, dated 2021).
